Test results from the supplement of paper PMC10307832.

Experiments:
Assay in all cases: relative viability (nuclei count vs DMSO), 5 days (fraction); higher = more cells survive
CUDC-101 + OSI-027 = compound: C#Cc1cccc(Nc2ncnc3cc(OC)c(OCCCCCCC(=O)NO)cc23)c1 [CUDC-101] + COc1cccc2cc(-c3nc([C@H]4CC[C@H](C(=O)O)CC4)n4ncnc(N)c34)[nH]c12 [OSI-027] (partner 0.5 µM)
In short: (§1)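 Values are medians from duplicate plates. Each reflects relative viability, defined as the nuclei count of treated wells over that of vehicle wells. Lung cancer cell lines in 1536-well plates were pin-tool dosed one day after seeding with one drug alone or with a fixed anchor-drug dose plus five library-drug doses (not always all listed) in √10 steps, then fixed, stained and imaged at 4× after 5 days.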

NVP-TAE684 + Crizotinib = compound: COc1cc(N2CCC(N3CCN(C)CC3)CC2)ccc1Nc1ncc(Cl)c(Nc2ccccc2S(=O)(=O)C(C)C)n1 [NVP-TAE684] + C[C@@H](Oc1cc(-c2cnn(C3CCNCC3)c2)cnc1N)c1c(Cl)ccc(F)c1Cl [Crizotinib] (partner 1 µM)
In short: as §1

Vandetanib + Lapatinib = compound: COc1cc2/c(=N/c3ccc(Br)cc3F)nc[nH]c2cc1OCC1CCN(C)CC1 [Vandetanib] + CS(=O)(=O)CCNCc1ccc(-c2ccc3ncnc(Nc4ccc(OCc5cccc(F)c5)c(Cl)c4)c3c2)o1 [Lapatinib] (partner 2 µM)
In short: as §1

Vandetanib + Linsitinib = compound: COc1cc2/c(=N/c3ccc(Br)cc3F)nc[nH]c2cc1OCC1CCN(C)CC1 [Vandetanib] + C[C@]1(O)C[C@@H](c2nc(-c3ccc4ccc(-c5ccccc5)nc4c3)c3c(N)nccn32)C1 [Linsitinib] (partner 1 µM)
In short: as §1

Cell Line | relative viability (CUDC-101 + OSI-027; first compound 0.01 µM) | relative viability (CUDC-101 + OSI-027; first compound 0.03162 µM) | relative viability (CUDC-101 + OSI-027; first compound 0.1 µM) | relative viability (CUDC-101 + OSI-027; first compound 0.3162 µM) | relative viability (CUDC-101 + OSI-027; first compound 1 µM) | relative viability (NVP-TAE684 + Crizotinib; first compound 0.2 µM) | relative viability (NVP-TAE684 + Crizotinib; first compound 0.6325 µM) | relative viability (NVP-TAE684 + Crizotinib; first compound 2 µM) | relative viability (Vandetanib + Lapatinib; first compound 0.02 µM) | relative viability (Vandetanib + Lapatinib; first compound 0.06325 µM) | relative viability (Vandetanib + Lapatinib; first compound 0.2 µM) | relative viability (Vandetanib + Lapatinib; first compound 0.6325 µM) | relative viability (Vandetanib + Lapatinib; first compound 2 µM) | relative viability (Vandetanib + Linsitinib; first compound 0.02 µM) | relative viability (Vandetanib + Linsitinib; first compound 0.06325 µM) | relative viability (Vandetanib + Linsitinib; first compound 0.2 µM) | relative viability (Vandetanib + Linsitinib; first compound 0.6325 µM) | relative viability (Vandetanib + Linsitinib; first compound 2 µM)
NCI-H1792 | 0.777 | 0.649 | 0.731 | 0.715 | 0.629 | 1.06 | 0.966 | 0.954 | 0.886 | 0.824 | 0.869 | 0.874 | 0.862 | 0.559 | 0.605 | 0.559 | 0.547 | 0.454
NCI-H1915 | 0.627 | 0.597 | 0.591 | 0.551 | 0.404 | 0.922 | 0.921 | 0.858 | 0.905 | 0.972 | 1.05 | 0.93 | 0.928 | 1.06 | 1.09 | 1.08 | 1.1 | 1.13
NCI-H1944 | 0.436 | 0.388 | 0.357 | 0.36 | 0.253 | 1.07 | 1.03 | 0.933 | 0.818 | 0.848 | 0.798 | 0.845 | 0.808 | 1.08 | 1.16 | 1.18 | 0.981 | 0.94
NCI-H1975 | 0.658 | 0.75 | 0.728 | 0.813 | 0.698 | 0.978 | 1.1 | 0.227 | 0.846 | 0.831 | 0.862 | 0.858 | 0.81 | 0.902 | 0.801 | 0.897 | 0.803 | 0.902
NCI-H1993 | 0.61 | 0.552 | 0.625 | 0.626 | 0.657 | – | 0.709 | 0.548 | 0.728 | 0.801 | 0.663 | 0.923 | 0.786 | 0.803 | 0.639 | 0.662 | 0.762 | 0.675
NCI-H2009 | 0.672 | 0.737 | 0.739 | 0.8 | 0.494 | 1.07 | 0.968 | 0.788 | 0.848 | 0.887 | 1.04 | 0.981 | 1.06 | 1.17 | 1.16 | 1.3 | 1.22 | 1.19
NCI-H2023 | 0.433 | 0.461 | 0.432 | 0.488 | 0.325 | 0.549 | 0.45 | 0.144 | 0.814 | 0.694 | 0.763 | 0.943 | 0.854 | 0.698 | 0.607 | 0.676 | 0.589 | 0.485
NCI-H2085 | 0.577 | 0.646 | 0.728 | 0.835 | 0.535 | 0.788 | 0.872 | 0.55 | 0.749 | 0.706 | 0.837 | 0.868 | 0.748 | 1.01 | 0.837 | 0.855 | 0.945 | 0.793
NCI-H2087 | 0.473 | 0.548 | 0.463 | 0.679 | 0.561 | 0.942 | 1.14 | 0.642 | 0.894 | 0.916 | 0.988 | 1.06 | 1.08 | 0.918 | 1.03 | 0.831 | 0.922 | 0.911
NCI-H2126 | 0.678 | 0.659 | 0.662 | 0.668 | 0.508 | 1.08 | 1.07 | 0.726 | 0.698 | 0.747 | 0.805 | 0.724 | 0.768 | 0.67 | 0.728 | 0.73 | 0.765 | 0.647
NCI-H2228 | 0.406 | 0.689 | 0.671 | 0.615 | 0.419 | 0.476 | 0.42 | 0.139 | 1.32 | 0.903 | – | 1.32 | 1.23 | 0.589 | 0.54 | – | 0.707 | 0.585
NCI-H2347 | 0.313 | 0.38 | 0.402 | 0.469 | 0.25 | 0.683 | 0.619 | 0.617 | 0.972 | 0.701 | 0.913 | 0.964 | 0.89 | 0.976 | 0.64 | 0.929 | 0.995 | 0.982
NCI-H2405 | 0.643 | 0.613 | 0.721 | 0.734 | 0.541 | 0.828 | – | 0.644 | 1.1 | 0.842 | 1.25 | 1.14 | 0.316 | 0.901 | 0.552 | 0.959 | 1.01 | 0.665
NCI-H3122 | 0.909 | 1.07 | 1.03 | 1.14 | 0.927 | 0.243 | 0.216 | 0.179 | 1.05 | 0.975 | 1.04 | 1.06 | 1 | 1.01 | 0.946 | 0.957 | 0.964 | 0.993
PC-3 [JPC-3] | 0.758 | 0.786 | 0.514 | 0.547 | 0.407 | 0.993 | 1 | 0.946 | 0.442 | 0.482 | 0.49 | 0.458 | 0.41 | 0.946 | 0.882 | 0.963 | 0.876 | 0.522
PC-14 | 1.02 | 0.813 | 0.378 | 0.571 | 0.0565 | 0.994 | 1.02 | 0.75 | 0.295 | 0.382 | 0.308 | 0.273 | 0.282 | 0.988 | 0.911 | 1.03 | 0.617 | 0.249
RERF-LC-KJ | 0.517 | 0.612 | 0.674 | 0.585 | 0.401 | 0.948 | 0.781 | 0.792 | 0.848 | 0.839 | 0.827 | 0.843 | 0.878 | 0.922 | 0.859 | 0.939 | 0.835 | 0.763
SK-LU-1 | 0.356 | 0.332 | 0.431 | 0.402 | 0.325 | 0.972 | 0.81 | 0.412 | 0.859 | 0.676 | 0.992 | 0.832 | 0.816 | 1.05 | 0.759 | 0.896 | 1.12 | 1.12
